Assay results as given in patent US20110190492A1, “DIAGNOSTIC PROBE FOR CONFORMATION DISEASE” (TOHOKU UNIVERSITY, priority 2005, published 2011).
Like-named read-outs stand apart in the source and are kept apart here.

Key:
[1] = tested on: histidine-requiring Salmonella typhimurium TA100 and TA98 strains; details: in the presence of S9mix; literature comparison compounds; cited from earlier work
amyloid β protein = biological target: T1, amyloid β protein (Homo sapiens, UniProt P05067); experiment: Staining test on a brain section of an Alzheimer disease patient (amyloid β protein); assay type: binding, human (Alzheimer disease patient); details: 100 μM compound in 50% ethanol, 10 minutes, fluorescence microscopy
T1 construct: from tissue; host or cells: paraffin-embedded human brain sections (temporal lobe, hippocampus) of Alzheimer disease patients
T1 sequence (P05067 672-713 limits assumed): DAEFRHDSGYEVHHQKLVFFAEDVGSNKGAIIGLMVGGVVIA
Text: (1) Brain specimens at the temporal lobe and the hippocampus of patients to which a definitive diagnosis of Alzheimer disease had been given, and those of normal senile persons were used. The specimens were given by our coworker, Fukushimura Hospital, Longevity Medicine Institute, and we were given their consent of use of the specimens for our study purpose by the bereaved of the patients (Fukushimura Hospital Ethical Review Board Approval No. 20).
(2) The paraffin-embedded brain tissue was cut into slices having a thickness of 6 μm or 8 μm, and extended and dried on a slide. The paraffin brain section was processed for paraffin removal in xylene twice for 10 minutes, 100% ethanol twice for 5 minutes, 90% ethanol for 5 minutes and running water for 10 minutes in that order.
(3) For pretreatment prior to the staining treatment with a compound of the invention, the sections were processed for autofluorescence removal with lipofuscin. First, the paraffin-removed sections were dipped in 0.25% KMnO4 solution for 20 minutes. These were washed with PBS, twice for 2 minutes, then dipped in 0.1% K2S2O5/oxalic acid solution for about 5 seconds, and then further washed with PBS, three times for 2 minutes.
(4) About 150 μl of a 100 μM solution of a compound of the invention dissolved in 50% ethanol was dropwise applied to the section and reacted for 10 minutes. After dipped five times in tap water, the section was entrapped with Fluor Save Reagent (Calbiochem), and analyzed through microscopy with a fluorescence microscope (Nikon, Eclipse 80i). The images were taken with a digital camera (Nikon Dxm 1200F or Photometrics' Cool SNAP ES).

[2] = tested on: histidine-requiring Salmonella typhimurium TA100 and TA98 strains; experiment: Mutagenicity test (reverse mutation test); assay type: cell-based; details: for relative activity: irrespective of the absence or presence of S9mix
Experimental: In view of their use, it is desirable that the compounds of the invention have no mutagenicity or have little mutagenicity to a level causing no problem. For investigating the gene mutagenesis of the compounds of the invention, herein carried out was a reverse mutation test with histidine-requiring Salmonella typhimurium TA100 and TA98 strains. Two tests were carried out. One is a test for dose determination test; and the other is for mutagenicity.
The test methods and the mutagenicity of the compounds of the invention are mentioned below. In the dose determination test, six doses of 0.160, 0.800, 4.00, 20.0, 100 and 500 μg/plate (common ratio 5) were tried.
As a result of the dose determination test, when the mutagenicity of the test compound was admitted, then the actual test for mutagenicity was carried out, using the dose capable of giving an accurate dose-reaction curve. When no mutagenicity of the test compound was admitted in the dose determination test and when the growth inhibition of the test cells was admitted therein, then the dose to present the growth inhibition was taken as the maximum dose; and when the growth inhibition was not admitted, then a dose of 5000 μg/plate was taken as the maximum dose. With that, the actual test for mutagenicity was carried out on the level of 6 doses (common ratio 2).
First, a test compound was dissolved or suspended in DMSO, then diluted in order to prepare test compound liquids having a varying concentration.
100 μl of a test compound liquid or a negative control (DMSO) solution was put into a sterilized test tube. Then, for the case in the absence of a metabolic activation system (−S9mix), 500 μl of 0.1 mol/liter sodium-phosphate buffer (pH 7.4) was added to it; and for the case in the presence of a metabolic activation system (+S9mix), 500 μl of S9mix was added to it.
Next, 100 μl of the test strain suspension that had been cultivated with shaking at 37° C. for 8 hours was added to it, and preincubated in a shaking thermostat at 37° C. for 20 minutes. After shaken, 2 ml of top agar was added to it, and the contents were mixed.
Next, the mixture was poured onto a minimal glucose agar plate medium (plate) and spread uniformly thereon, then the top agar was solidified, and the plate was transferred into a thermostat and incubated at 37° C. for 48 hours.
Then, the number of the colonies grown through reverse mutation was counted.
For counting it, […]. After area correction and miss-counting correction, the number of the colonies was computed. When the colony analyzer could not be used owing to the deposition of the test compound or the cell growth inhibition, then the number of the colonies was counted with the naked eye.
In case where the number of the colonies through reverse mutation increased two times or more that of the negative control and where the dose dependency or the reproducibility of the increase was admitted, then the tested sample was decided as positive. When the sample was decided as positive, then the relative activity that indicates the relative comparative value of the intensity of the mutagenicity of the test compound was obtained according to the following formula:
Relative Activity={(number of colonies per plate having the concentration)−(number of colonies per negative control plate)}/the value of concentration (mg/plate).

[3] = Acute toxicity test, intravenous administration to mice; assay type: in vivo; details: mice observed for 7 days
Experimental: The compounds of the invention were tested for their acute toxicity through intravenous administration thereof to mice. Four Crj:CD1 male mice formed one test group, and some test groups of those mice were used (the mean body weight of the mice of each group was from 31 to 32 g). A test compound was dissolved in a mixture of 1 N HCl, polyethylene glycol-400 and distilled water, or dissolved in DMSO, and then diluted with distilled water. This was administered to each mouse via its tail vein.

[4] = biological target: T2, Tg mouse intracerebral amyloid plaque (amyloid β protein) (Homo sapiens, UniProt P05067); experiment: Tg mice with amyloid β deposition: intravenous administration, ex-vivo fluorescence microscopy of brain sections; assay type: in vivo, Tg mouse (Tg2576 or APPswe2576/Tau JPL3)
T2 construct: a Tg mouse (Tg2576) with amyloid β protein deposition; from tissue
T2 sequence (P05067 672-713 limits assumed): as above

Structure (SMILES)	relative activity [1]	binding to amyloid β protein in the brain section of an Alzheimer disease patient (amyloid β protein)	relative activity [2]	also measured
CC(=C(C#N)C#N)c1ccc2cc(N(C)CCF)ccc2c1 [FDDNP]	extremely high	–	–	–
OCC(CF)Oc1ccc2nc(/C=C/c3cnc(N4CCOCC4)s3)oc2c1 (centres unmarked) [THK-702, (E)-2-[2-(2-morpholinothiazol-5-yl)ethenyl]-6-[(1-fluoromethyl-2-hydroxy)ethoxy]-benzoxazole]	–	The white space arrow indicates amyloid β protein	minus	Maximum Permissible Dose [3]: ≧10 mg/kg; correspondence of binding site with anti-Aβ antibody-stained site of the same section ([4]; Tg2576 mouse, 4 mg/kg intravenous, antibody 4G8): completely corresponded to the anti-Aβ antibody-stained site of the same section
CN(C)c1ccc(-c2cn3cc(I)ccc3n2)cc1 [IMPY]	extremely high	–	–	–
Cc1cc2nc(/C=C/c3ccc(N4CCOCC4)s3)sc2cc1C [THK-097, 5,6-dimethyl-2-[2-(5-morpholin-4-yl-thiophen-2-yl)vinyl]-benzothiazole]	–	bound to the amyloid β protein	minus	Relative Activity in the absence of S9Mix ([2]; (colonies per plate − colonies per negative control plate)/concentration (mg/plate), in the absence of S9Mix as printed in head): minus; Relative Activity in the presence of S9Mix ([2]; (colonies per plate − colonies per negative control plate)/concentration (mg/plate), in the presence of S9Mix as printed in head): minus^1); passage through the blood-brain barrier and binding to Tg mouse intracerebral amyloid plaque ([4]; intravenous administration via tail vein, brain fixed after 1 hour, fluorescence microscopy (THK-097 0.2 mg/kg; THK-525, THK-727, THK-702 4 mg/kg)): passed through the blood-brain barrier, and bound to the Tg mouse intracerebral amyloid plaque
